# What was measured:
# Candida = test system: Candida; parameters: method as in PMID 23142671; settings: cited from earlier work
# NIH3T3 cell line = test system: NIH3T3 cell line; parameters: method as in PMID 23142671; settings: read-out: IC50 against NIH3T3 cell line; cited from earlier work
# hepatitis C virus (HCV) = test system: hepatitis C virus (HCV); parameters: method as in PMID 26695731; settings: read-out: EC50 against HCV; cited from earlier work
# Mahlavu line = test system: Mahlavu line; parameters: method as in PMID 26695731; settings: cited from earlier work
# [1] = target: laccase from Trametes versicolor; assay: Laccase inhibition kinetic study; format: biochemical; settings: determined in this study for 32 (table cites [75]), SD = 5.75 (%)
# Description: The inhibition constant for 32 was determined according to procedures and calculations reported previously using commercially available laccase from Trametes versicolor (Sigma-Aldrich).
# [2] = test system: Sclerotinia sclerotiorum strain FSc10; assay: In vitro antifungal activity, mycelial growth inhibition on PDA medium; format: cell-based; settings: screening at basal 50 µg/mL, PDA medium, mean ± SD of three determinations
# Description: (§1) The cultures of Botrytis cinerea strain FBc05 and Sclerotinia sclerotiorum strain FSc10 were obtained from the collection of the Division of Plant Pathology and Mycology at the Department of Plant Protection of Wroclaw University of Environmental and Life Sciences (Poland). Cerrena unicolor (Bull.ex.Fr.) Murr, strain no. 139, originated from the culture collection of the Department of Biochemistry, University of Lublin (Poland). The stock cultures were maintained on potato dextrose agar at +4 °C and periodically transferred to a fresh medium.
# (§2) Prior to the fungicidal activity assay of hydrazide–hydrazones 1–35, we considered ethanol and DMSO as potential dissolution media for tested compounds. […] Furthermore, a very important aspect of biological testing is the careful selection of organic solvents. These are typically used, e.g., methanol, ethanol, acetone, and DMSO, and may be highly toxic for microorganisms in even very low concentrations, such as 1% (v/v). Ethanol and DMSO with a final concentration between 0.1 and 1.0% (v/v) in a PDA medium were used and applied to evaluate the inhibition growth of B. cinerea, S. sclerotiorum, and C. unicolor (see Supplementary Materials). The following procedure was applied to the microorganism testing. The assays of fungi inhibition growth were performed at a basal concentration of 50 µg/mL for all compounds, and detailed experiments were extended for testing between 0 and 50 µg/mL (0, 6.25, 12.5, 25.0, and 50.0 µg/mL) for selected compounds. The tests were carried out on Petri dishes (diameter 60 mm) with PDA medium containing appropriate compound, co-solvent control, and hydrazide–hydrazone dissolved in co-solvent assay. A piece of mycelium with a 5 mm edge taken from the outer edge of the growing fungi on the PDA plate with co-solvent was transferred to a central part of the PDA plate with the examined compound. The plates thus inoculated were incubated at 22 °C in the dark for a time when the control plate containing only the co-solvent was covered entirely with the tested microorganism. For B. cinerea and S. sclerotiorum, the test took 3 days, and for C. unicolor, it took 7 days. Each assay was performed at least in triplicate. […] Model parameters c and e were estimated using the nonlinear least-squares method. Parameters d and b (with two exceptions) were fixed and assumed to be equal. Based on estimated parameters, the values of IC50 were determined. […] The IC50 values were calculated only in cases when the model predicted a decrease in growth rate by more than 50%.
# (§3) In vitro antifungal activity
# (§4) Prior to the fungicidal activity assay of hydrazide-hydrazones 1–35, we considered ethanol (EtOH) and DMSO as potential dissolution media for tested compounds.
# (§5) EtOH and DMSO with a final concentration between 0.1–1.0% (v/v) in a PDA medium were applied to evaluate the inhibition growth of B. cinerea, S. sclerotiorum, and C. unicolor (see Table S3). The following procedure was applied to the microorganism testing with the hydrazide-hydrazones. The assays of fungi inhibition growth were performed at a basal concentration of 50 µg/mL for all compounds, and detailed experiments were extended for testing selected molecules 18, 19, 27, […]
# (§6) Table S2. In vitro antifungal activity for DMSO and ethanol co-solvents.
# [3] = test system: Cerrena unicolor strain no. 139; assay: as above; format: cell-based; settings: Cerrena unicolor, NO.139; screening at basal 50 µg/mL, PDA medium, mean ± SD of three determinations; read-out: fungal growth inhibition, C. unicolor
# Description: as §1, §2, §3, §4, §5, §6
# [4] = test system: Botrytis cinerea strain FBc05; assay: as above; format: cell-based; settings: screening at basal 50 µg/mL, PDA medium, mean ± SD of three determinations
# Description: as §1, §2, §3, §4, §5, §6
# Rhizopus oryzae = test system: Rhizopus oryzae; parameters: method as in PMID 24582134; settings: cited from earlier work
# [5] = test system: Alternaria alternata (Fr.) Keissl; parameters: method as in PMID 24582134; settings: cited from earlier work
# B. cinerea = test system: B. cinerea; parameters: method as in PMID 24582134; settings: cited from earlier work
# [6] = test system: Fusarium oxysporum Schltdl.; parameters: method as in PMID 24582134; settings: cited from earlier work
smiles,measurement,setting,value
Cn1nnnc1SCC(=O)N/N=C/c1ccc(O)cc1 [II],"MIC, anticandidal activity",Candida,500 to 1000 µg/mL
same,IC50,NIH3T3 cell line,632 µM
O=C(NN=Cc1ccccn1)c1cc(-c2ccc(F)cc2F)ccc1O [XI],EC50,hepatitis C virus (HCV),3.9 µM
same,EC50,Mahlavu line,4.74 µM
"O=C(N/N=C/c1c(O)cc(O)c(/C=N/NC(=O)c2ccc(O)cc2)c1O)c1ccc(O)cc1 [compound 32, N′,N″-[(2,4,6-trihydroxy-1,3-phenylene)di-(E)-methanylylidene]bis(4-hydroxybenzohydrazide)]",melting point,,223 to 226 °C (dec.)
same,Ki,[1],194 µM
same,"fungal growth inhibition, S. sclerotiorum",[2],n.o.
same,inhibition of growth at 50 µg/mL,[3],14.3 ± 2.7%
same,"fungal growth inhibition, B. cinerea",[4],n.o.
Cc1ccc(C(C)C)c(O)c1 [thymol],"MIC (minimum inhibitory concentration), Rhizopus oryzae",Rhizopus oryzae,450 µg/mL
same,"MIC (minimum inhibitory concentration), Alternaria alternata",[5],400 µg/mL
same,"MIC (minimum inhibitory concentration), B. cinerea",B. cinerea,300 µg/mL
same,"MIC (minimum inhibitory concentration), Fusarium oxysporum",[6],300 µg/mL

# Source: article PMC11124341, “4-Hydroxybenzoic Acid-Based Hydrazide–Hydrazones as Potent Growth Inhibition Agents of Laccase-Producing Phytopathogenic Fungi That Are Useful in the Protection of Oilseed Crops” (Molecules, 2024)
